Data set [1] can be described thus: Pharmacokinetics and tissue distribution of compounds in rats. Format: in vivo. To be noted: male, SD, rat, PO 5 mg/kg; for AUC(0-t): read-out: AUC AUClast; for Cmax: read-out: Peak concentration Cmax; for Kp: read-out: T/P Ratio of AUClast in tissue to plasma; for Tmax: read-out: Time to peak concentration Tmax. As to the method:
By intragastric administration (PO) of BLU-667 (prepared according to Example 5 of WO2017/079140A1) and Compound 17 to male SD rats respectively, the plasma concentrations and the tissue concentrations of BLU-667 and Compound 17 in brains, lungs and thyroid of rats were determined to investigate the pharmacokinetic characteristics. The dosage of administration by PO was 5 mg/kg, and the solvent was 0.5% MC (methylcellulose). With administration by PO, blood samples were collected at different time points (0 h before administration, and 0.25 h, 0.5 h, 1 h, 2 h, 4 h, 6 h, 8 h, and 24 h after administration). The blood samples were anticoagulated with dipotassium edetate, and centrifuged to provide plasma samples, which were stored at −80° C. Rats were sacrificed by exsanguination from abdominal aorta at 0.5 h, 2 h, 8 h, and 24 h after PO administration. Brain, lung and thyroid were collected, washed, and homogenized with normal saline at a certain ratio, to provide tissue samples which were stored at −80° C. The plasma samples and tissue samples were processed with precipitated protein and then analyzed by LC-MS/MS. The pharmacokinetic parameters were computed using WinNonlin 6.3 software and using a non-compartmental model.

Data set [2] deals with human medullary thyroid carcinoma TT cells. Put plainly: Efficacy test in mice, subcutaneous xenograft tumor of TT cells. Format: in vivo, Balb/c-nu mouse. As to conditions: 5 mg/kg, PO, BID; TT nude mouse xenograft. As to the method: Experimental purpose: To evaluate the in vivo efficacy of Compound 17 and BLU-667 in a Balb/c-nu mouse model with a subcutaneous xenograft tumor of human medullary thyroid carcinoma TT cells.
Drug preparation: Compound 17 was dissolved in 0.1 M aqueous solution of H3PO4, and BLU-667 was dissolved in 0.1 M aqueous solution of HOAc, to prepare clear solutions (pH: about 4.0). An aqueous solution of H3PO4 at a pH of about 4.0 was used for the solvent control group. The mode of administration was PO, BID.
Tumor measurement: The tumor diameter was measured with a vernier caliper twice a week. The computing formula of the tumor volume is: V=0.5×a×b^2, where a represents a long diameter of the tumor, and b represents a short diameter of the tumor. Evaluation of tumor growth inhibition rate (TGI (%)) for tumor inhibition efficacy of the compounds: TGI (%)=[(1-(mean tumor volume of a treatment group at the end of drug administration-mean tumor volume of the treatment group at the commencement of drug administration))/(mean tumor volume of a solvent control group at the end of treatment-mean tumor volume of the solvent control group at the commencement of treatment)]×100%.
Statistical analysis: Prism Graphpad5.0 software was used for statistical analysis based on the relative tumor volume at the end of the experiment. The comparison between multiple groups was analyzed by two-way ANOVA, and p<0.05 was considered as a significant difference.
Experimental results: In the TT nude mouse xenograft model of human medullary thyroid carcinoma, Compound 17 has a significant […] anti-tumor effect at a dose of 5 mg/kg. […] Relative tumor growth rate T/C (%)=TRTV/CRTV×100%, where TRTV is the mean relative tumor volume of the test compound group, CRTV is the relative tumor volume of the solvent control group; and the relative tumor volume RTV=Vt/V0, where V0 is the mean tumor volume at the commencement of the administration, and Vt is the mean tumor volume measured on day t after the administration.

Like-named read-outs stand apart in the source and are kept apart here.

Turning to `CO[C@]1(C(=O)N[C@@H](C)c2ccc(-n3cc(F)cn3)nc2)CC[C@H](c2nc(C)cc(Nc3cc(C)[nH]n3)n2)CC1` [BLU-667, reference compound], in data set [1] (brain), the AUC(0-t) was found to be 157 ng·h/mL, the Cmax was determined as 30.8 ng/mL, the Kp turned out to be 0.018 and the Tmax came to 30 min. Also, in data set [1] (lung), the AUC(0-t) is 25100 ng·h/mL, the Cmax turned out to be 3570 ng/mL, the Kp was 2.9 and the Tmax was found to be 30 min. In data set [1] (plasma), the AUC(0-t) was determined as 8650 ng·h/mL, the Cmax worked out at 1490 ng/mL, the Kp came out at 1 and the Tmax worked out at 60 min. For the same compound, in data set [1] (thyroid), the AUC(0-t) was found to be 6350 ng·h/mL, the Cmax was found to be 888 ng/mL, the Kp was found to be 0.73 and the Tmax turned out to be 30 min. In addition, in data set [2], the “Relative tumor growth rate T/C” value worked out at 33.62% and the “Tumor growth inhibition rate TGI” value amounted to 88.82%.
